Entries after “also recorded” stand apart in the source; their conditions may differ.
Columns and labels:
Type in all cases: cell-based
[1] = test system: glucose transporter; assay: Inhibition by cytochalasin B of 2-deoxyglucose uptake into matured adipocytes; conditions: FIG. 13
Method: The influence of cytochalasin B on 2-deoxyglucose uptake into matured adipocytes during the stimulation of the sample into the cells was tested in the same manner as in the method described in Example 5 on whether the enhancing action for glucose uptake of the ethanol extract fraction from root portions of Angelica keiskei koidz. shown in Example 16 is inhibited by cytochalasin B, which is an inhibitor of glucose transporter.
Specifically, as a sample, a group with addition of a dimethyl sulfoxide solution of the ethanol extract fraction from root portions of Angelica keiskei koidz. so as to have a final concentration of 0.1% was set. Here, there were set a group without addition of the sample as a negative control, and a group with addition of insulin so as to have a final concentration of 1 μg/mL as a positive control. Furthermore, a group with addition of cytochalasin B (manufactured by nacalai tesque, 10435-81) so as to have a final concentration of 40 μM was set concurrently to the timing of the setting of the group with addition of insulin in each group. Thereafter, the amount of 2-deoxy-[1,2-^3H(N)]-glucose uptake into the cells was determined in the same manner.

[2] = test system: Preadipocyte cell line 3T3-L1; assay: Induction of adipocyte differentiation, amount of biosynthesized triglyceride; conditions: positive control, 4 μl of aqueous solution containing 5 mg/mL insulin
Method: The induction of an adipocyte differentiation was carried out by partially modifying the above-mentioned method of Rubin C. S. et al. Preadipocyte cell line 3T3-L1 (ATCC CCL-92.1) was suspended in a 10% bovine fetal serum (manufactured by GIBCO)-containing Dulbecco's modified Eagle's medium (manufactured by Sigma, D6046) containing 200 μM ascorbic acid (hereinafter referred to as A-D-MEM) so as to have a concentration of 4×10^3 cells/mL, and the suspension was put in each well of a 12-well microtiter plate in an amount of 2 mL per well. The cells were cultured at 37° C. for 7 days in the presence of 5% carbon dioxide gas. The medium was exchanged with the same medium on the second day and the fourth day. […] Here, there were set a group with addition of 4 μl of an aqueous solution containing 5 mg/mL insulin (manufactured by TAKARA BIO INC.) as a positive control, and a group with addition of water as a negative control. […] The amount of biosynthesized triglyceride in the adipocytes was determined as an index of induction of differentiation into matured adipocytes, and as evaluation of insulin-mimetic action. […] The precipitate was dissolved in 100 μl of isopropanol, and thereafter the amount of triglyceride contained in 10 μl of the resulting solution was determined with Triglyceride G-Test (manufactured by Wako Pure Chemical Industries, Ltd., code 276-69801). […]

[3] = test system: matured adipocytes (3T3-L1 cells); assay: Enhancing action for glucose uptake (2-deoxyglucose uptake) into matured adipocytes; conditions: positive control, insulin final concentration 1 μg/mL
[4] = test system: matured adipocytes (3T3-L1 cells); assay: Synergistic enhancing action of glucose uptake with low concentration-insulin in matured adipocytes; conditions: insulin alone, final concentration 0.001 μg/mL; FIG. 14
Method: As evaluation of the synergistic enhancing action of glucose uptake by the ethanol extract fraction from root portions of Angelica keiskei koidz. prepared in Example 14 and a low concentration-insulin, the amount of 2-deoxyglucose uptake into matured adipocytes during the stimulation of the sample in the adipocytes was determined partly in the same manner as in the method described in Example 5.
The matured adipocytes were prepared in the same manner as in the method described in item (1) of Example 5.
After the termination of the culture, the medium was removed, and the cells were washed twice with 0.1% (w/v) bovine serum albumin (manufactured by Sigma, A8022)-containing Dulbecco's modified Eagle's medium. Thereafter, 1 mL of the same medium containing a dimethyl sulfoxide solution of the ethanol extract fraction from root portions of Angelica keiskei koidz. having a final concentration of 0.02% was added thereto. The cells were cultured overnight at 37° C. in the presence of 5% carbon dioxide gas. A group without containing the ethanol extract fraction from root portions of Angelica keiskei koidz. was set as a negative control. […] Thereafter, the amount of 2-deoxy-[1,2-^3H(N)]-glucose uptake into the cells was determined in the same manner as in the method described in item (2) of Example 5.

[5] = test system: matured adipocytes (3T3-L1 cells); assay: Glucose uptake by insulin stimulation into adipocytes induced to be differentiated by the sample; conditions: adipocytes differentiated by insulin (4 μl of 5 mg/mL); insulin stimulation 1 μg/mL; FIG. 15
Description: Adipocytes which were induced to be differentiated by the ethanol extract fraction from Angelica keiskei koidz. prepared in Example 14 were obtained, and thereafter it was confirmed whether the glucose uptake into the cells was enhanced by insulin stimulation.
Specifically, as a sample, there was set a group with addition of a dimethyl sulfoxide solution of the ethanol extract fraction from root portions of Angelica keiskei koidz. to have a final concentration of 0.05%. A group with addition of 4 μl of an aqueous solution containing 5 mg/mL insulin (manufactured by TAKARA BIO INC.) was set as a positive control. […]
Next, the amount of 2-deoxyglucose uptake into the resulting matured adipocytes during the insulin stimulation in the adipocytes was determined in the same manner as in the method described in Example 5.
Specifically, a group without addition of insulin or a group with addition of insulin so as to have a final concentration of 1 μg/mL was set in each of the matured adipocytes. Thereafter, the amount of 2-deoxy-[1,2-^3H(N)]-glucose uptake into the cells was determined in the same manner.

Compound | inhibition of 2-deoxy-[1,2-3H(N)]-glucose uptake ([1]; cytochalasin B final concentration 40 μM added concurrently with each group) | induction of triglyceride biosynthesis (adipocyte differentiation) [2] | enhancement of 2-deoxy[1,2-3H(N)]-glucose uptake [3] | 2-deoxy-[1,2-3H(N)]-glucose uptake with concurrent cytochalasin B ([1]; insulin 1 μg/mL plus cytochalasin B 40 μM) | enhancement of 2-deoxy-[1,2-3H(N)]-glucose uptake [4] | enhancement of 2-deoxy[1,2-3H(N)]-glucose uptake by insulin stimulation [5]
C=C1[C@@H](C)[C@H]2[C@H](Cc3ccccc3)NC(=O)[C@]23OC(=O)/C=C/[C@H](O)CCC[C@@H](C)C/C=C/[C@H]3[C@@H]1O [cytochalasin B] | almost completely inhibited | – | – | – | – | –
insulin | – | induction of triglyceride biosynthesis could be confirmed | enhancement of 2-deoxy[1,2-^3H(N)]-glucose uptake was found; also recorded: enhancement of 2-deoxy-[1,2-^3H(N)]-glucose uptake was found | almost completely inhibited | enhancement of 2-deoxy-[1,2-^3H(N)]-glucose uptake was found | enhancement of 2-deoxy[1,2-^3H(N)]-glucose uptake was found by insulin stimulation

Source: US20080044498A1, “Therapeutic or prophylactic agent, and method of treating or preventing a disease” (priority 2002, published 2008)
